# From ChEMBL document CHEMBL1240323, “3D QSAR studies on a series of potent and high selective inhibitors for three kinases of RTK family” (J Mol Graph Model, 2007)
# pIC50: −log10 of the molar value.
# Molecular target: Vascular endothelial growth factor receptor 2 (Homo sapiens, UniProt P35968)
# Assay: Inhibition of KDR
# Vascular endothelial growth factor receptor 2, sequence (P35968 whole entry): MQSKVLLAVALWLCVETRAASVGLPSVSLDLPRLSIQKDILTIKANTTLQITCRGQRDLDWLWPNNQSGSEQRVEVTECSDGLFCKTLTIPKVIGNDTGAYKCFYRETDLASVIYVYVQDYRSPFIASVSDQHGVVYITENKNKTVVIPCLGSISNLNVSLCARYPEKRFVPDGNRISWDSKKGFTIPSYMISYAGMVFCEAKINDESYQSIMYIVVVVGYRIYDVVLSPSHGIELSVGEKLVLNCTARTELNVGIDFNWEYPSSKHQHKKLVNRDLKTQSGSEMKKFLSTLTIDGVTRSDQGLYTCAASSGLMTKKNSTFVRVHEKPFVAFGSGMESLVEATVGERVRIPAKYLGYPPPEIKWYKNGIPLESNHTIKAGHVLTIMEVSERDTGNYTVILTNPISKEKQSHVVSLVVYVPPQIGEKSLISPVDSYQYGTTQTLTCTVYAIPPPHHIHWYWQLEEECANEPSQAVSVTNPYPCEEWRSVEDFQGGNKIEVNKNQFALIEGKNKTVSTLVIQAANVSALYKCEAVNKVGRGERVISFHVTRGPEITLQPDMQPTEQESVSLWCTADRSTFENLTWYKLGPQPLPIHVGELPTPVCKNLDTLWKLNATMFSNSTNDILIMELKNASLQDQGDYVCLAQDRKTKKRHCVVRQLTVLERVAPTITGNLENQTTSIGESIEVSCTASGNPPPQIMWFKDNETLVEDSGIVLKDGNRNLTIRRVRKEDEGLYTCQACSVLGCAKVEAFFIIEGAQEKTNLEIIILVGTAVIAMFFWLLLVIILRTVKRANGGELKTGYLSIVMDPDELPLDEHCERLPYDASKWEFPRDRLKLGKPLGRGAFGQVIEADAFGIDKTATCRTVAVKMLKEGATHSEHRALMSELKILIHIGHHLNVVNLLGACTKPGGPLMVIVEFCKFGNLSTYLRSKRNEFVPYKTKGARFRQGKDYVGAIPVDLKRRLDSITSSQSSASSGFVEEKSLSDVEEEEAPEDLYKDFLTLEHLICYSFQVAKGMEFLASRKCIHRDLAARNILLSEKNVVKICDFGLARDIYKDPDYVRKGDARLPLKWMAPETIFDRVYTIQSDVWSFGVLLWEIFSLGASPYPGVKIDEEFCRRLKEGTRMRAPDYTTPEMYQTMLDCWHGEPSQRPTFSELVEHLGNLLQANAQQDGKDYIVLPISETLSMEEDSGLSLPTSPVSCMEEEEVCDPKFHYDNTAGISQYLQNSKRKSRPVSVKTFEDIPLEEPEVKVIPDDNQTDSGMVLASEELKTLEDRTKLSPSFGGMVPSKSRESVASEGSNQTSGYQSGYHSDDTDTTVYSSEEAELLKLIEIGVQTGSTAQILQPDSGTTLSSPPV
smiles,measurement,value
Cc1sc2ncnc(N)c2c1-c1ccc(NC(=O)Nc2cc(C(F)(F)F)ccc2F)cc1,pIC50,7.34
